For assay [1], the target named is helicase domain of the Pol θ protein (Homo sapiens, UniProt O75417). The class given is biochemical.
The test system of assay [2] is DLD1 BRCA2-/- cells. The assay is described as follows: Cell viability assay (CTG assay), DLD1 BRCA2-/- cells. The class given is cell-based. Conditions: Homo sapiens, DLD-1, 240 h; CellTiter Glo, read on Day 10, initial concentration 30 µM. As to the method: (§1) 2. Cell Viability Assay of Pol θ Inhibitor
(§2) The cell viability assay, i.e., the commonly used CTG assay, was conducted for the efficacy of the inhibitor in vitro using the CellTiter Glo reagent (Promega, G7573).
On the technique in general: In ATP-based viability assays light output follows the ATP content of the culture.

Assay [3] deals with DLD1 wild type. The assay is described as follows: Cell viability assay (CTG assay), DLD1 wild type cells. In kind it is cell-based. The conditions noted are these: Homo sapiens, DLD-1, 240 h; CellTiter Glo, read on Day 10, initial concentration 30 µM. As to the method:
as §1, §2

[4] abbreviates: ATPase activity, ADP-Glo, ssDNA substrate, 60 min at room temperature, initial concentration 10 µM, read-out: Biochemical experiment IC50.

Read-outs that look alike come from different tables or passages of the source.

helicase domain of the Pol θ protein, sequence (O75417 102-554 limits assumed): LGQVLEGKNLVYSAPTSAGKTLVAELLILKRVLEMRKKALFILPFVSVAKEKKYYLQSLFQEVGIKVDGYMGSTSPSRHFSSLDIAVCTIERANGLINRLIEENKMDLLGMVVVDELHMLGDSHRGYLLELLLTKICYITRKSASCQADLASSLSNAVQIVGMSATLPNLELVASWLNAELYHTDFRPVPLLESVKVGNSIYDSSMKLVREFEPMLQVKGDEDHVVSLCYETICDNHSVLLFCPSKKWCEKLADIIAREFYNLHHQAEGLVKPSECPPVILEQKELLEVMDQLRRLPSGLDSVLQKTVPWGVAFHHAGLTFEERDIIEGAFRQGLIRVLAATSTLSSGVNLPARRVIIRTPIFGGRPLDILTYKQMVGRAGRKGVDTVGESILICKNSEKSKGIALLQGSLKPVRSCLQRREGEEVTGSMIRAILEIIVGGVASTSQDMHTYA

The IC50 is the midpoint of a concentration-inhibition curve. In the case of `CCCc1nsc(NC(=O)c2cnc(-n3cccc(F)c3=O)cc2-c2cc(C(F)F)ncc2OC)n1` [Example 16, 2"-(difluoromethyl)-3-fluoro-5"-methoxy-2-oxo-N-(3-propyl-1,2,4-thiadiazol-5-yl)-2H-[1,2':4',4"-terpyridine]-5'-carboxamide], the IC50 in assay [1] (setting [4]) was 9.69 nM; in assay [2], 10 nM; in assay [3], over 5000 nM.

As to `COc1cnc(C(F)F)cc1-c1cc(-n2cccc(F)c2=O)ncc1C(=O)Nc1nc(NC(C)=O)ns1` [Example 31, N-(3-acetamino-1,2,4-thiadiazol-5-yl)-2"-(difluoromethyl)-3-fluoro-5"-methoxy-2-oxo-2H-[1,2':4',4"-terpyridin]-5'-carboxamide], the half-maximal inhibitory concentration (IC50) in assay [1] (setting [4]) was 14.4 nM; in assay [3], over 5000 nM.

Consider `COc1cnc(C(F)F)cc1-c1cc(-n2cccc(F)c2=O)ncc1C(=O)Nc1nc(N2CCOCC2)ns1` [Example 24], for which the half-maximal inhibitory concentration (IC50) was 20.3 nM in assay [1], 15.3 nM in assay [2] and over 5000 nM in assay [3].

Regarding `COc1cnc(C(F)F)cc1-c1cc(-n2cccc(F)c2=O)ncc1C(=O)Nc1nc(-c2c(C)ncn2C)ns1` [Example 32, 2"-(difluoromethyl)-N-(3-(1,4-dimethyl-1H-imidazol-5-yl)-1,2,4-thiadiazol-5-yl)-3-fluoro-5"-methoxy-2-oxo-2H-[1,2':4',4"-terpyridin]-5'-carboxamide], the half-inhibitory concentration (IC50) is 6.11 nM in assay [1] (setting [4]), 13.1 nM in assay [2] and over 5000 nM in assay [3].

For `COc1cnc(C(F)F)cc1-c1cc(-n2cccc(F)c2=O)ncc1C(=O)Nc1nc(N2CC3CC(C2)N3)ns1` [Example 27, N-(3-(3,6-diazabicyclo[3.1.1]heptan-3-yl)-1,2,4-thiadiazol-5-yl)-2"-(difluoromethyl)-3-fluoro-5"-methoxy-2-oxo-2H-[1,2':4',4"-terpyridin]-5'-carboxamide], the IC50 is 158 nM in assay [1] (setting [4]) and over 5000 nM in assay [3].

With `COc1cnc(C(F)F)cc1-c1cc(-n2cccc(F)c2=O)ncc1C(=O)Nc1nc(C2CCC2)ns1` [Example 33, N-(3-cyclobutyl-1,2,4-thiadiazol-5-yl)-2"-(difluoromethyl)-3-fluoro-5"-methoxy-2-oxo-2H-[1,2":4'4"-bipyridin]-5'-carboxamide], the figures for the half-maximal inhibitory concentration (IC50) in assay [1], in assay [2] and in assay [3] were 4.11 nM, 8.57 nM and over 5000 nM, respectively.

`COc1cnc(C(F)F)cc1-c1cc(-n2cccc(F)c2=O)ncc1C(=O)Nc1nccs1` [Example 4, 2"-(difluoromethyl)-3-fluoro-5"-methoxy-2-oxo-N-(thiazol-2-yl)-2H-[1,2':4',4"-terpyridine]-5'-carboxamide]: the IC50 in assay [1] (setting [4]) is 20.9 nM; in assay [2], 43 nM; in assay [3], over 50000 nM.

With `COc1cnc(Cl)cc1-c1cc(-n2cccc(F)c2=O)ncc1C(=O)Nc1nc(-c2c(C)cnn2C)ns1` [Example 26, 2"-chloro-N-(3-(1,4-dimethyl-1H-pyrazol-5-yl)-1,2,4-thiadiazol-5-yl)-3-fluoro-5"-methoxy-2-oxo-2H-[1,2':4',4"-terpyridin]-5'-carboxamide], the 50% inhibitory concentration (IC50) in assay [1] (setting [4]) is 2.29 nM; in assay [2], 0.82 nM; in assay [3], over 5000 nM.

For `COc1cnc(C(F)F)cc1-c1cc(-n2cccc(F)c2=O)ncc1C(=O)Nc1nc(-c2c(C)cnn2C)ns1` [Example 14, 2"-(difluoromethyl)-N-(3-(1,4-dimethyl-1H-pyrazol-5-yl)-1,2,4-thiadiazol-5-yl)-3-fluoro-5"-methoxy-2-oxo-2H-[1,2':4',4"-terpyridine]-5'-carboxamide], the results for the IC50 in assay [1] (setting [4]), in assay [2] and in assay [3] were 3.63 nM, 4.82 nM and over 50000 nM, respectively.

In the case of `COc1cnc(C(F)F)cc1-c1cc(-n2cccc(F)c2=O)ncc1C(=O)Nc1nc(C(C)C)ns1` [Example 17, 2"-(difluoromethyl)-3-fluoro-N-(3-isopropyl-1,2,4-thiadiazol-5-yl)-5"-methoxy-2-oxo-2H-[1,2':4',4"-terpyridine]-5'-carboxamide], the IC50 is 8.98 nM in assay [1] (setting [4]), 3.98 nM in assay [2] and over 5000 nM in assay [3].

Take `COc1cnc(C(F)F)cc1-c1cc(-n2cccc(F)c2=O)ncc1C(=O)Nc1nc(-c2cccnc2)ns1` [Example 13, 2"-(difluoromethyl)-3-fluoro-5"-methoxy-2-oxo-N-(3-(pyridin-3-yl)-1,2,4-thiadiazol-5-yl)-2H-[1,2':4',4"-terpyridine]-5'-carboxamide]: the results for the half-inhibitory concentration (IC50) in assay [1] (setting [4]), in assay [2] and in assay [3] were 17.6 nM, 54.1 nM and over 50000 nM, respectively.

Turning to `COc1cnc(C(F)F)cc1-c1cc(-n2cccc(F)c2=O)ncc1C(=O)Nc1nc(N2CC3(COC3)C2)ns1` [Example 25, N-(3-(2-oxa-6-azaspiro[3.3]heptan-6-yl)-1,2,4-thiadiazol-5-yl)-2"-(difluoromethyl)-3-fluoro-5"-methoxy-2-oxo-2H-[1,2':4',4"-bipyridin]-5'-carboxamide], the half-inhibitory concentration (IC50) in assay [1] is 42.3 nM; in assay [2] it was 242 nM; in assay [3] it was over 5000 nM.

Take `COc1cnc(C(F)F)cc1-c1cc(-n2cccc(F)c2=O)ncc1C(=O)Nc1nc(-c2ccc(F)cc2)ns1` [Example 12, 2"-(difluoromethyl)-3-fluoro-N-(3-(4-fluorophenyl)-1,2,4-thiadiazol-5-yl)-5"-methoxy-2-oxo-2H-[1,2':4',4"-terpyridine]-5'-carboxamide]: the results for the IC50 in assay [2] and in assay [3] were 25.1 nM and 23300 nM, respectively.

On to `COc1cnc(C(F)F)cc1-c1cc(-n2cccc(F)c2=O)ncc1C(=O)Nc1ncns1` [Example 10, 2"-(difluoromethyl)-3-fluoro-5"-methoxy-2-oxo-N-(1,2,4-thiadiazol-5-yl)-2H-[1,2':4',4''-terpyridine]-5'-carboxamide], for which the figures for the 50% inhibitory concentration (IC50) in assay [1] (setting [4]), in assay [2] and in assay [3] were 5.81 nM, 89.1 nM and over 50000 nM, respectively.

For the compound `COc1cnc(C(F)F)cc1-c1cc(-n2cccc(F)c2=O)ncc1C(=O)Nc1nc(-c2ccccn2)ns1` [Example 8, 2"-(difluoromethyl)-3-fluoro-5"-methoxy-2-oxo-N-(3-(pyridin-2-yl)-1,2,4-thiadiazol-5-yl)-2H-[1,2':4',4"-terpyridine]-5'-carboxamide], the IC50 in assay [1] (setting [4]) came out at 8.23 nM; in assay [2] it was 56.2 nM; in assay [3] it was 19200 nM.

As for `COc1cnc(C(F)F)cc1-c1cc(-n2cccc(F)c2=O)ncc1C(=O)Nc1nc(Cl)ns1` [Example 20, N-(3-chloro-1,2,4-thiadiazol-5-yl)-2"-(difluoromethyl)-3-fluoro-5"-methoxy-2-oxo-2H-[1,2':4',4"-terpyridine]-5'-carboxamide], the 50% inhibitory concentration (IC50) in assay [1] (setting [4]) was 8.31 nM; in assay [2], 22.4 nM; in assay [3], over 5000 nM.

In the case of `COc1cnc(Cl)cc1-c1cc(-n2cccc(F)c2=O)ncc1C(=O)Nc1nc(C2CC2)ns1` [Example 21, 2"-chloro-N-(3-cyclopropyl-1,2,4-thiadiazol-5-yl)-3-fluoro-5"-methoxy-2-oxo-2H-[1,2':4',4"-terpyridine]-5'-carboxamide], the results for the IC50 in assay [1] (setting [4]), in assay [2] and in assay [3] were 8.57 nM, 7.64 nM and over 5000 nM, respectively.

With `COc1cnc(C(F)F)cc1-c1cc(-n2cccc(F)c2=O)ncc1C(=O)Nc1nc(-c2ccccc2)ns1` [Example 9, 2"-(difluoromethyl)-3-fluoro-5"-methoxy-2-oxo-N-(3-phenyl-1,2,4-thiadiazol-5-yl)-2H-[1,2':4',4"-terpyridine]-5'-carboxamide], the IC50 in assay [1] (setting [4]) was 13.4 nM; in assay [2], 32.9 nM; in assay [3] it was over 50000 nM.

On to `COc1cnc(C(F)F)cc1-c1cc(-n2cccc(F)c2=O)ncc1C(=O)Nc1nc(-c2ccncc2)ns1` [Example 15, 2"-(difluoromethyl)-3-fluoro-5"-methoxy-2-oxo-N-(3-(pyridin-4-yl)-1,2,4-thiadiazol-5-yl)-2H-[1,2':4',4"-terpyridine]-5'-carboxamide], for which the results for the half-maximal inhibitory concentration (IC50) in assay [1] (setting [4]), in assay [2] and in assay [3] were 5.58 nM, 10.8 nM and over 5000 nM, respectively.

Consider `COc1nsc(NC(=O)c2cnc(-n3cccc(F)c3=O)cc2-c2cc(C(F)F)ncc2OC)n1` [Example 7, 2"-(difluoromethyl)-3-fluoro-5"-methoxy-N-(3-methoxy-1,2,4-thiadiazol-5-yl)-2-oxo-2H-[1,2':4',4"-terpyridine]-5'-carboxamide], for which the IC50 is 4.02 nM in assay [1] (setting [4]), 56.2 nM in assay [2] and over 50000 nM in assay [3].

For `COc1cnc(C(F)F)cc1-c1cc(-n2cccc(F)c2=O)ncc1C(=O)Nc1nc(C(C)(C)C)ns1` [Example 6, N-(3-(tert-butyl)-1,2,4-thiadiazol-5-yl)-2"-(difluoromethyl)-3-fluoro-5"-methoxy-2-oxo-2H-[1,2':4',4"-terpyridine]-5'-carboxamide], the IC50 in assay [1] (setting [4]) was 15.2 nM; in assay [2], 52.1 nM; in assay [3] it was over 50000 nM.

As to `COc1cnc(C(F)F)cc1-c1cc(-n2cccc(F)c2=O)ncc1C(=O)Nc1nc(N)ns1` [Example 30, N-(3-amino-1,2,4-thiadiazol-5-yl)-2"-(difluoromethyl)-3-fluoro-5"-methoxy-2-oxo-2H-[1,2':4',4"-terpyridin]-5'-carboxamide], the IC50 in assay [1] (setting [4]) was 34.1 nM; in assay [3], over 5000 nM.

For the compound `COc1cnc(Cl)cc1-c1cc(C)ncc1C(=O)Nc1nc(C2CC2)ns1` [Example 5, 2'-chloro-N-(3-cyclopropyl-1,2,4-thiadiazol-5-yl)-5'-methoxy-6-methyl-[4,4'-bipyridine]-3-carboxamide], the values for the IC50 in assay [1] (setting [4]) and in assay [3] were 132 nM and over 50000 nM, respectively.

`COc1cnc(C(F)F)cc1-c1cc(-n2cccc(F)c2=O)ncc1C(=O)Nc1nc(N2CC3CC(C2)N3C)ns1` [Example 29, 2"-(difluoromethyl)-3-fluoro-5"-methoxy-N-(3-(6-methyl-3,6-diazabicyclo[3.1.1]heptan-3-yl)-1,2,4-thiadiazol-5-y)-2-oxo-2H-[1,2':4',4"-terpyridin]-5'-carboxamide]: the 50% inhibitory concentration (IC50) in assay [1] was 244 nM; in assay [3], over 5000 nM.

The values are drawn from patent publication EP4741390A1, “BIARYL RING COMPOUND, INTERMEDIATE THEREOF, PREPARATION METHOD THEREFOR AND USE THEREOF” (Hangzhou Synrx Therapeutics Biomedical Technology Co., Ltd., priority 2023, dated 2025).
